The record followed here is ChEMBL document CHEMBL1140551, “N-Benzyl-3-sulfonamidopyrrolidines as novel inhibitors of cell division in E. coli” (2007).

In brackets after ≈: the same amount, converted by molar mass. Activity calls are given as the source filed them. The calls are words filed in the database; no cut-off is given here. Some results are limits rather than exact numbers.

In assay [1] the test system is Escherichia coli. Put plainly: Antimicrobial activity against AcrAB efflux pump-deficient Escherichia coli DCR39. The format is functional.
Assay [2] concerns Escherichia coli. Put plainly: Inhibition of GTPase activity of Escherichia coli FtsZ at 100 uM.
For assay [3], the system named is Escherichia coli. Put plainly: Induction of filamentation in Escherichia coli DCR39 at 5 uM after 15 hrs. The format is functional, organism-based.

On to `Cc1ccc(F)cc1S(=O)(=O)N[C@@H]1CCN(Cc2ccc(Br)cc2)C1`, for which the MIC in assay [1] was greater than 80 µM. Further, in assay [2], the inhibition stood at 31.5%.
In turn, `Cc1ccc(F)cc1S(=O)(=O)N[C@@H]1CCN(Cc2ccc(C(=O)c3ccccc3)cc2)C1` gave an MIC in assay [1] greater than 80 µM.
Compound `Cc1ccc(F)cc1S(=O)(=O)N[C@@H]1CCN(Cc2ccc(C(F)(F)F)cc2)C1` came in with an MIC in assay [1] greater than 80 µM. In assay [2], this compound had an inhibition of 26.9%.
The corresponding values for `Cc1ccc(F)cc1S(=O)(=O)N[C@@H]1CCN(Cc2cccc3[nH]ccc23)C1` are greater than 80 µM and 29.9%.
With `Cc1ccc(F)cc1S(=O)(=O)N[C@@H]1CCN(Cc2ccc3c(c2)OCO3)C1`, in assay [1], the MIC is greater than 80 µM. In addition, the inhibition in assay [2] is 14.6%.
Compound `C#Cc1ccc(S(=O)(=O)N[C@@H]2CCN(Cc3ccc(CC(C)C)cc3)C2)cc1` registered an MIC in assay [1] of less than 12 µM.
In assay [1], `Cc1ccc(F)cc1S(=O)(=O)N[C@@H]1CCN(C(=O)c2ccc(OC(C)C)cc2)C1` came in with an MIC greater than 80 µM. The same compound registered an inhibition in assay [2] of 31.9%.
For `Cc1ccc(F)cc1S(=O)(=O)N[C@@H]1CCN(Cc2ccc3[nH]ccc3c2)C1`, in that order: greater than 80 µM and 24.9%.
`CC(C)Cc1ccc(CN2CCC[C@@H](CNS(=O)(=O)c3cc(Cl)ccc3Cl)C2)cc1`: in assay [1], the MIC came to 20 µM (≈ 9.39 µg/mL). In other words, the double-digit micromolar range.
In assay [1], `Cc1ccc(F)cc1S(=O)(=O)N[C@@H]1CCN(Cc2ccc(-c3ccccc3)cc2)C1` returned a minimal inhibitory concentration (MIC) of less than 10 µM. For the same compound, the inhibition in assay [2] stood at 9.4%.
The corresponding values for `Cc1ccc(F)cc1S(=O)(=O)N[C@@H]1CCN(Cc2ccc(CC(C)C)cc2)C1` are less than 10 µM and 13.7%.
The corresponding values for `Cc1ccc(F)cc1S(=O)(=O)N[C@@H]1CCN(Cc2ccc(Oc3ccccc3)cc2)C1` are 20 µM (≈ 8.81 µg/mL) and 12.3%.
With `C#Cc1ccc(S(=O)(=O)N[C@@H]2CCN(Cc3ccc(N=[N+]=[N-])cc3)C2)cc1`, the MIC in assay [1] is greater than 40 µM.
The compound `CC(C)Cc1ccc(CN2CC[C@@H](NS(=O)(=O)c3cc(Cl)ccc3Cl)C2)cc1` showed a minimum inhibitory concentration (MIC) in assay [1] of 10 µM (≈ 4.41 µg/mL). In addition, the result in assay [3] was Active.
As for `C#Cc1ccc(S(=O)(=O)N[C@@H]2CCN(Cc3ccc(OC(C)C)c(N=[N+]=[N-])c3)C2)cc1`, the MIC in assay [1] was greater than 64 µM.

As usually defined, the MIC is the lowest concentration found to suppress growth. For orientation: inhibition means the change of the read-out against control, counted positive when it falls.
